Measurements published in patent publication US20230041996A1, “CALCIUM-SENSING RECEPTOR AGONIST COMPOUND AND APPLICATION THEREOF” (BEIJING TUO JIE BIOPHARMACEUTICAL CO. LTD., priority 2019, published 2023).
Square brackets hold non-standard residues; d marks the D form. Peptide text beside a SMILES is read from it. * marks the point of attachment. Cys(free,S-linked) = N[C@@H](CS*)C(=O)O; d2Thi = N[C@H](Cc1cccs1)C(=O)O; dAbu = CC[C@@H](N)C(=O)O

Tests used:
[1] = tested on: normal rats (Sprague Dawley); experiment: In vivo efficacy in normal rat model after a single dose (plasma parathyroid hormone, serum calcium); settings: 3 mg/kg intravenous single dose; for serum calcium level: FIG. 3; for plasma parathyroid hormone level: within 4 h, FIG. 2
Description: 3.4 Evaluation of In Vivo Efficacy of Some of the Compounds Disclosed Herein in a Normal Rat Model after a Single Dose 3.4.1 Objective: To Evaluate the Efficacy of the Test Compounds in Reducing Plasma Parathyroid Hormone Levels after a Single Dose in a Normal Rat Model.
SPF normal adult rats (Sprague Dawley, or SD) with weight of 250-350 g were fed with normal diet in an animal room for 7 days. Rats were randomized into groups of 6, half female and half male, and numbered. One day before the start of treatment, 540 μL of blood was collected from each rat, and the plasma parathyroid hormone level and the serum calcium concentration were measured as baseline. The plasma was separated by K2-EDTA anticoagulation. Blood was collected through jugular vein and preserved on ice after collection. The whole blood was centrifuged at 6,800 rpm for 6 minutes at 2-8° C. The supernatant, i.e., the plasma, was collected and preserved at 2-8° C. For serum separation, blood was collected through jugular vein, let stand at room temperature for 1 h, and centrifuged at room temperature at 3,500 rpm for 10 min. The supernatant, i.e., the serum, was collected and preserved at room temperature. The animals were fasted overnight with free access to water the day before treatment. The day after blood sampling, example compounds 13, 17, 31 and etelcalcetide (AMG-416) were dissolved in a phosphate buffered saline (PBS, Gibco). The rats were intravenously administered with example compounds 13, 17, 31 or etelcalcetide 3 mg/kg or an equal volume of PBS buffer. Subsequently, blood samples were collected as per the following procedures for measuring the parameters. 100 μL of blood was collected at 1 h, 2 h and 4 h post-dose, and the plasma was separated according to the procedures above. The plasma parathyroid hormone levels were measured using the Rat Intact PTH ELISA Kit (Quidel—Immunotopics, Cat. #: 60-2500; ELISA: Enzyme-linked immunosorbent assay) according to the kit instructions. The detailed procedures are as follows: using the streptavidin-preplated reaction strips provided in the kit, 25 μL of reference standard, control or plasma samples were added to the wells. Biotinylated rat parathyroid hormone antibody and rat parathyroid hormone/HRP binding antibody were mixed at a ratio of 1:1, and 100 μL of the mixed solution was added to each well. The reaction strip was sealed with a sealing film, wrapped with an aluminum foil for storage in dark, and shaken on a horizontal shaker at room temperature for 3 h at a rotation speed of 220 rpm. The solutions in the wells were discarded. 350 μL of cleaning working solution was added to the wells for washing and then discarded; 5 washes were performed with the same procedures. Finally the wells were dried. To each well was added 150 μL of horseradish peroxidase ELISA substrate. The reaction strip was sealed with a sealing film, wrapped with an aluminum foil for storage in dark, and shaken on a horizontal shaker at room temperature for 30 min at a rotation speed of 180-220 rpm. 100 μL of ELISA terminating solution was added to each well, and the strip was shaken at 180-220 rpm for 1 min on a horizontal shaker at room temperature. The absorbance at 450 nm in each well was detected within 10 min after the addition of the ELISA terminating solution, while the absorbance at 620 nm was subtracted as background. A mixture of horseradish peroxidase ELISA substrate 150 μL and ELISA terminating solution 100 μL was used as the blank control in the absorbance detection. A standard curve according to the absorbance of the reference standard was plotted, and the actual plasma parathyroid hormone concentration was calculated according to the absorbance of other samples and the standard curve. The determination of the serum calcium concentration was conducted according to the procedures of the relevant kit.

[2] = tested on: 5/6 nephrectomized rats; experiment: In vivo efficacy in 5/6 nephrectomized rat model after continuous administration (plasma parathyroid hormone, serum calcium)
Description: 3.5.1 Objective: to evaluate the efficacy of some of the compounds disclosed herein in reducing plasma parathyroid hormone level and serum calcium level after continuous administration in a 5/6 nephrectomized rat model.
The rats were adapted. After anesthesia, ⅔ of the left kidney was surgically resected, and after 1 week of recovery, the right kidney was resected to establish the 5/6 nephrectomized rat model. After the second resection, the animals were normally fed for 2 weeks, tested for creatinine (CREA) and plasma parathyroid hormone level, and randomized as per the parathyroid hormone level into 4 groups of 10, including normal saline group, compound 17—low dose group, compound 17—high dose group and etelcalcetide group. After randomization, the normal saline group, compound 17—low dose group, compound 17—high dose group and etelcalcetide group were respectively administered with 1 dose of normal saline, 1 mg/kg of compound 17, 2 mg/kg of compound 17 and 1 mg/kg of etelcalcetide through the tail vein daily for 28 days. During the treatment period, parameters such as animal weight, plasma parathyroid hormone level and serum calcium were detected. The first day of treatment was taken as day 1.

Row | SMILES | serum calcium level [1] | plasma parathyroid hormone level [1] | plasma parathyroid hormone level compared with the normal saline group ([2]; 1 mg/kg and 2 mg/kg daily via tail vein for 28 days) | suppression of plasma parathyroid hormone level versus etelcalcetide at the same dose ([2]; 1 mg/kg, 6 h and 16 h post-dose, FIG. 4) | serum calcium reduction ([2]; after administration on days 1, 14 and 28) | persistence to reduce serum calcium levels versus etelcalcetide at the same dose ([2]; day 28) | maximal reduction in serum calcium versus etelcalcetide at the same dose ([2]; days 1, 14 and 28, FIG. 5) | extent of serum calcium reduction with the period of treatment ([2]; minimum of serum calcium on days 14 and 28 compared to day 1)
1 | CC(=O)N[C@H](CSSC[C@H](N)C(=O)O)C(=O)N[C@H](CCCNC(=N)N)C(=O)N[C@H](CCCNC(=N)N)C(=O)N[C@H](Cc1cccs1)C(=O)N[C@H](CCCNC(=N)N)C(=O)N[C@H](C)C(=O)N[C@H](CCCNC(=N)N)C(N)=O [Compound 13, Ac-c(C)-r-r-(D-2-Thi)-r-a-r-NH2] (Ac-[dC](Cys(free,S-linked))[dR][dR][d2Thi][dR][dA][dR]-NH2) | corresponding reduction | completely reduced |  |  |  |  |  | 
2 | CC[C@@H](NC(=O)[C@@H](CCCNC(=N)N)NC(=O)[C@@H](CCCNC(=N)N)NC(=O)[C@@H](CSSC[C@H](N)C(=O)O)NC(C)=O)C(=O)N[C@H](CCCNC(=N)N)C(=O)N[C@H](C)C(=O)N[C@H](CCCNC(=N)N)C(N)=O [Compound 17, Ac-c(C)-r-r-(D-Abu)-r-a-r-NH2] (Ac-[dC](Cys(free,S-linked))[dR][dR][dAbu][dR][dA][dR]-NH2) | corresponding reduction | completely reduced | reduced the plasma parathyroid hormone level in rats in a dose dependent manner | slightly superior or comparable magnitude to that of etelcalcetide | reversible serum calcium reduction | superior and significantly different | comparable to etelcalcetide | did not increase with the period of treatment
3 | CC[C@@H](NC(=O)[C@@H](CCCNC(=N)N)NC(=O)[C@@H](CCCNC(=N)N)NC(=O)[C@@H](CSSC[C@H](N)C(=O)O)NC(C)=O)C(=O)N[C@H](CCCNC(=N)N)C(=O)N[C@H](CO)C(=O)N[C@H](CCCNC(=N)N)C(N)=O [Compound 31, Ac-c(C)-r-r-(D-Abu)-r-s-r-NH2] (Ac-[dC](Cys(free,S-linked))[dR][dR][dAbu][dR][dS][dR]-NH2) | corresponding reduction | completely reduced |  |  |  |  |  | 
